According to patent US20250243171A1, “QUINAZOLINE COMPOUNDS FOR TREATMENT OF DISEASE” (Arthrosi Therapeutics, Inc., priority 2021, published 2025):
Structures can show the parent of a compound that is named as a salt.

Columns and labels:
Experiment in all cases: EC50 assay: Ba/F3 stable cell proliferation (CCK-8, 72 h)
Format in all cases: cell-based
Ba/F3 stable cells [1] = molecular target: T1, Ba/F3 stable cells (Homo sapiens, UniProt P00533, DUP767-769, cells depend on it); details: Ba/F3-EGFR V769-D770insASV cells
T1 construct: EC50 Ba/F3-EGFR V769-D770insASV; other: Ba/F3-EGFR V769-D770insASV cells, 72 h, CCK-8
Outline: (§1)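 Ba/F3 stable cells were seeded at 4,000 cells/90 μL/well in 96-well plates and held 2 h at 37° C. in 5% CO2, then given 10 μL of serially titrated compound (0.1% DMSO final). After 72 h at 37° C., CCK-8 reagent was added for 4 hours and absorbance read at 450 nm to derive EC50.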

Ba/F3 stable cells [2] = molecular target: T2, Ba/F3 stable cells (Homo sapiens, UniProt P00533, DUP768-770, cells depend on it); details: Ba/F3-EGFR D770-N771insSVD cells
T2 construct: EC50 Ba/F3-EGFR D770-N771insSVD; other: Ba/F3-EGFR D770-N771insSVD cells, 72 h, CCK-8
Outline: as §1

Ba/F3 stable cells [3] = molecular target: T3, Ba/F3 stable cells (Homo sapiens, UniProt P00533, DUP771-773, cells depend on it); details: Ba/F3-EGFR H773-V774insNPH cells
T3 construct: EC50 Ba/F3-EGFR H773-V774insNPH; other: Ba/F3-EGFR H773-V774insNPH cells, 72 h, CCK-8
Outline: as §1

Ba/F3 stable cells [4] = molecular target: T4, Ba/F3 stable cells (Homo sapiens, UniProt P00533, INS763FQEA, cells depend on it); details: Ba/F3-EGFR A763-Y764insFQEA cells
T4 construct: EC50 Ba/F3-EGFR A763-Y764insFQEA; other: Ba/F3-EGFR A763-Y764insFQEA cells, 72 h, CCK-8
Outline: as §1

Ba/F3 stable cells [5] = molecular target: T5, Ba/F3 stable cells (Homo sapiens, UniProt P00533, T790M/L858R, cells depend on it); details: Ba/F3-EGFR L858R-T790M cells
T5 construct: EC50 Ba/F3-EGFR L858R-T790M; other: Ba/F3-EGFR L858R-T790M cells, 72 h, CCK-8
Outline: as §1

Ba/F3 stable cells [6] = molecular target: T6, Ba/F3 stable cells (Homo sapiens, UniProt P04626, DUP772-775, cells depend on it); details: Ba/F3-HER2 A775-G776insYVMA cells
T6 construct: EC50 Ba/F3-HER2 A775-G776insYVMA; other: Ba/F3-HER2 A775-G776insYVMA cells, 72 h, CCK-8
Outline: as §1

T5 sequence (P00533 whole entry T790M/L858R): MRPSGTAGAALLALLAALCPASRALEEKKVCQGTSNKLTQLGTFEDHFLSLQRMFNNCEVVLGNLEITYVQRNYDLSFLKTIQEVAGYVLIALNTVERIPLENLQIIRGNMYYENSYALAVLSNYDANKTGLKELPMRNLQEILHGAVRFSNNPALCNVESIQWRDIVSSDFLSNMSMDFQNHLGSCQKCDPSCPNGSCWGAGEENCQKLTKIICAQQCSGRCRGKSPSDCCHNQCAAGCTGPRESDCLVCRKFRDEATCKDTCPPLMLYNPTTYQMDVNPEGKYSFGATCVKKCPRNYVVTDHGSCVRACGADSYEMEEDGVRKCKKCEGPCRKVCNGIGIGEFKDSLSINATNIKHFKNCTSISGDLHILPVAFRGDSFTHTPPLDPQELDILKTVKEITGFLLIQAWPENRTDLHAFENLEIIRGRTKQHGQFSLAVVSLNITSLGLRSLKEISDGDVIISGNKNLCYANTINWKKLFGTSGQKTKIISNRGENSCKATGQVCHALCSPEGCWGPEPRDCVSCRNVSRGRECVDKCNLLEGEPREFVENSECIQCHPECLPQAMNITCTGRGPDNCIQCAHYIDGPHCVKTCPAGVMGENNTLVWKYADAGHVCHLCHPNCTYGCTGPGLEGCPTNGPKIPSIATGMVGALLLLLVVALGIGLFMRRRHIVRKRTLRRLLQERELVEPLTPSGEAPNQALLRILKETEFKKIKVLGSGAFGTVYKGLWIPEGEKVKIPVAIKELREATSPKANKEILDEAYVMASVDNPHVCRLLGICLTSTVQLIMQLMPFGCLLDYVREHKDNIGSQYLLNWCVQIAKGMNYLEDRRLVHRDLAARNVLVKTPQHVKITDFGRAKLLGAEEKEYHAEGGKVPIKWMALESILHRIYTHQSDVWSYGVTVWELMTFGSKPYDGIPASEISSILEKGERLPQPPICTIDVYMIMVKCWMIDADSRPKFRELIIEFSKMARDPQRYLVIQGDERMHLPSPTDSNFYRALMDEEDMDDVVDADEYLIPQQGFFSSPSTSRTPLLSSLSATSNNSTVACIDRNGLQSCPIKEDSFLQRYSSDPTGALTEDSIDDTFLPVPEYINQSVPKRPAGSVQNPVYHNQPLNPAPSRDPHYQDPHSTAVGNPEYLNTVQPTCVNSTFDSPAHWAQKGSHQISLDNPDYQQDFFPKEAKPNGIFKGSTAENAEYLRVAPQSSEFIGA
T3 sequence (P00533 with tags, fused parts or gaps DUP771-773): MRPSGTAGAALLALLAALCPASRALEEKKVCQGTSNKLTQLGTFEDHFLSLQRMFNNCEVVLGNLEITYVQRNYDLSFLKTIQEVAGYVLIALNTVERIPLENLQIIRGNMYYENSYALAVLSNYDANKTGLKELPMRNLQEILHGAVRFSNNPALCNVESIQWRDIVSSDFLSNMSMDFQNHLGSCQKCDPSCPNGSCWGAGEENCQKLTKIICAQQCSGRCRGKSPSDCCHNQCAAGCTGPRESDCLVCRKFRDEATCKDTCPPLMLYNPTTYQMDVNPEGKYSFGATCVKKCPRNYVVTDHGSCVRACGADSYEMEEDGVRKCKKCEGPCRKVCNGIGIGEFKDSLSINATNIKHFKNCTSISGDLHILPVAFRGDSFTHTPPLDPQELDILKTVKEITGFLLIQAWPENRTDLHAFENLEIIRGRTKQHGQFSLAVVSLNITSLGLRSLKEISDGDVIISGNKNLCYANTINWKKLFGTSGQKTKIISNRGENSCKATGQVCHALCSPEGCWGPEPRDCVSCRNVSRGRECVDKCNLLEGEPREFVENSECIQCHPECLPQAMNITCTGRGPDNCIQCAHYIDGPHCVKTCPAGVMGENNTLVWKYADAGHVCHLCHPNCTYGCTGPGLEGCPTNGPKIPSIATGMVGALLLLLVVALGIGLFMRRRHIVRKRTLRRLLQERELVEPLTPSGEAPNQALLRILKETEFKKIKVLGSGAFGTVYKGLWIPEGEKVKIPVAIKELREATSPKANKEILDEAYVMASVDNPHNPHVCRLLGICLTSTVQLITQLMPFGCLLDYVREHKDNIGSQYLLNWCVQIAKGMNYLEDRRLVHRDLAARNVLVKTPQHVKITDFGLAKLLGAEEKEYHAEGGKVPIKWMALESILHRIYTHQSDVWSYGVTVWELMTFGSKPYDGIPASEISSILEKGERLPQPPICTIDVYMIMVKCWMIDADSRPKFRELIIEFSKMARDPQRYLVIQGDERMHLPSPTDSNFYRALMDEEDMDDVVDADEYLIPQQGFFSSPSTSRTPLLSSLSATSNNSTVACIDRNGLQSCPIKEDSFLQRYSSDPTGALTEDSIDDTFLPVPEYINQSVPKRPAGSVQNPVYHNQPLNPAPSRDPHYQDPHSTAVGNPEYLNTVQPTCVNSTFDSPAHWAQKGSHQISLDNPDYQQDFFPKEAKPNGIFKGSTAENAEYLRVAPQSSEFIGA
T2 sequence (P00533 with tags, fused parts or gaps DUP768-770): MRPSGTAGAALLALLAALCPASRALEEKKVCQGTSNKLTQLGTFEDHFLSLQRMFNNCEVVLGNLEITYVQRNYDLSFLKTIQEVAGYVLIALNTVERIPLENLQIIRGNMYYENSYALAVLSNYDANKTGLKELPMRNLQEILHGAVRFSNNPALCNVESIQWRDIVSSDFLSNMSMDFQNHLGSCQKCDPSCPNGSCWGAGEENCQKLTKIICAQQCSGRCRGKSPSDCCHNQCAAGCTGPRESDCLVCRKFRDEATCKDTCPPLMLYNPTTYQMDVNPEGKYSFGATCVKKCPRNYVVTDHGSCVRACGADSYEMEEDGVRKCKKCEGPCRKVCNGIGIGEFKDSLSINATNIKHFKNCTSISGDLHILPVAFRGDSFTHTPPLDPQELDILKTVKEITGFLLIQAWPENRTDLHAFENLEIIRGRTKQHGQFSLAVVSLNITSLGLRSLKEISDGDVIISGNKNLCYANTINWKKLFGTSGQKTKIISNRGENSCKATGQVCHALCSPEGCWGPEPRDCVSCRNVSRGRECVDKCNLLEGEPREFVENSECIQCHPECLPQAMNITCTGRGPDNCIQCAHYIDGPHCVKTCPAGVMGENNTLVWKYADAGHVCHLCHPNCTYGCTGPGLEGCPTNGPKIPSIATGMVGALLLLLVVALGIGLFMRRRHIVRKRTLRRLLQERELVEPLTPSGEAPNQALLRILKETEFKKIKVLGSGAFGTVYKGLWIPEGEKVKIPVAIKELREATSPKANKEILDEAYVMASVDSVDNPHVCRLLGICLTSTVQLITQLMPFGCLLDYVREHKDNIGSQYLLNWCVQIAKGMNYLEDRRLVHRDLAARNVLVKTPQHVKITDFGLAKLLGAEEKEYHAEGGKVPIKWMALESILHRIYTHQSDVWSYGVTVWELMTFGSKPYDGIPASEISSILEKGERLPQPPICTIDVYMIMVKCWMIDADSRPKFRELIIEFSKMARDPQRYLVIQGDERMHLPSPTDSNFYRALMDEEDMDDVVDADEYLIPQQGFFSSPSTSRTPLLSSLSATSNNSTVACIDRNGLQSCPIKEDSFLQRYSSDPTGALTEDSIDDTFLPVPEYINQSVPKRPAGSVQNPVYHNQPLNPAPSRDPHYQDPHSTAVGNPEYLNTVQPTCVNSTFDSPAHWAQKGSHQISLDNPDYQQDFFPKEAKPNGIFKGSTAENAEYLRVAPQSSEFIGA
T1 sequence (P00533 with tags, fused parts or gaps DUP767-769): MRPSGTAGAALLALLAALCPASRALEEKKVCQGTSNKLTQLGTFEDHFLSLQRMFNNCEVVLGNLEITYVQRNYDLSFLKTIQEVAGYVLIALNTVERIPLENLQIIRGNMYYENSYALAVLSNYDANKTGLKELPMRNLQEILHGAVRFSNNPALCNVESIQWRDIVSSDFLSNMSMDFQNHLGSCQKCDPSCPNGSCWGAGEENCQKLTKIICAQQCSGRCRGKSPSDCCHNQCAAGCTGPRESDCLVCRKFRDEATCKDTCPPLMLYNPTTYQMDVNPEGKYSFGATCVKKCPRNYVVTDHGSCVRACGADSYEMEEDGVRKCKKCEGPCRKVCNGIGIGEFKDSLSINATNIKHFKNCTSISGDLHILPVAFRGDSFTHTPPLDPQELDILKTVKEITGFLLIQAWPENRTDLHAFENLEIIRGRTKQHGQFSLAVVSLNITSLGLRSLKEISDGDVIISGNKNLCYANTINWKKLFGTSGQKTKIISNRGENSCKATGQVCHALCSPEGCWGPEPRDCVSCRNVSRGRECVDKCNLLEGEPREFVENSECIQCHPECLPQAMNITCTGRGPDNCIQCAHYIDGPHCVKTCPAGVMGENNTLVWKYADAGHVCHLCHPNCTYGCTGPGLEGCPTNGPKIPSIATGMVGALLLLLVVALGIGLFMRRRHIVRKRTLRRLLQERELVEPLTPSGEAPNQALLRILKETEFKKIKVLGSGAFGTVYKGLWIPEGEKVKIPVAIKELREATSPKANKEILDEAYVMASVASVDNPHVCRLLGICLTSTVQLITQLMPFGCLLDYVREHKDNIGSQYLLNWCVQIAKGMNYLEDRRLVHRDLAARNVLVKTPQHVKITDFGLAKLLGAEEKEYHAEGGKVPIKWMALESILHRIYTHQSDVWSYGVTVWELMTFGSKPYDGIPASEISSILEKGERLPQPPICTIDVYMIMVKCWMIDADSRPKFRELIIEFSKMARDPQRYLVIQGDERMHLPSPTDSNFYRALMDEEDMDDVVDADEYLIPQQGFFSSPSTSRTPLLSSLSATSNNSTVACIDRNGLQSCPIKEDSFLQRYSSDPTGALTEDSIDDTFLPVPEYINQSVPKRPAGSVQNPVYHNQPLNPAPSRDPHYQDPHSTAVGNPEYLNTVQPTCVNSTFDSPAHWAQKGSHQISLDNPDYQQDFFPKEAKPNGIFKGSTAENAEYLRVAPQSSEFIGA

C=CC(=O)N1CC(c2cc3c(Nc4ccc(Cl)c(Cl)c4F)ncnc3cc2OC2COC2)C1 [Compound 25, 1-(3-(4-((3,4-dichloro-2-fluorophenyl)amino)-7-(oxetan-3-yloxy)quinazolin-6-yl)azetidin-1-yl)prop-2-en-1-one]
EC50 (Ba/F3 stable cells [1]): ≤ 200 nM | EC50 (Ba/F3 stable cells [2]): ≤ 200 nM | EC50 (Ba/F3 stable cells [3]): ≤ 200 nM | EC50 (Ba/F3 stable cells [4]): ≤ 200 nM | EC50 (Ba/F3 stable cells [5]): ≤ 200 nM | EC50 (Ba/F3 stable cells [6]): ≤ 200 nM

COc1cc2ncnc(Nc3ccc(Cl)c(Cl)c3F)c2c([N+](=O)[O-])c1OC1CCNCC1 [Compound 207, N-(3,4-dichloro-2-fluorophenyl)-7-methoxy-5-nitro-6-(piperidin-4-yloxy)quinazolin-4-amine hydrochloride]
EC50 (Ba/F3 stable cells [1]): 200 to 1000 nM | EC50 (Ba/F3 stable cells [2]): > 1000 nM | EC50 (Ba/F3 stable cells [3]): 200 to 1000 nM | EC50 (Ba/F3 stable cells [4]): ≤ 200 nM | EC50 (Ba/F3 stable cells [5]): 200 to 1000 nM | EC50 (Ba/F3 stable cells [6]): 200 to 1000 nM

C=CC(=O)N1CC(c2cc3c(Nc4ccc5[nH]ccc5c4)ncnc3cc2OC)C1 [Compound 11, 1-(3-(4-((1H-indol-5-yl)amino)-7-methoxyquinazolin-6-yl)azetidin-1-yl)prop-2-en-1-one]
EC50 (Ba/F3 stable cells [1]): ≤ 200 nM | EC50 (Ba/F3 stable cells [2]): 200 to 1000 nM | EC50 (Ba/F3 stable cells [3]): ≤ 200 nM | EC50 (Ba/F3 stable cells [4]): ≤ 200 nM | EC50 (Ba/F3 stable cells [5]): > 1000 nM | EC50 (Ba/F3 stable cells [6]): 200 to 1000 nM

C=CC(=O)N1CCC(Oc2cc3c(Nc4ccc5ncsc5c4)ncnc3cc2OC)CC1 [Compound 145, 1-(4-((4-(benzo[d]thiazol-6-ylamino)-7-methoxyquinazolin-6-yl)oxy)piperidin-1-yl)prop-2-en-1-one]
EC50 (Ba/F3 stable cells [1]): 200 to 1000 nM | EC50 (Ba/F3 stable cells [2]): > 1000 nM | EC50 (Ba/F3 stable cells [3]): 200 to 1000 nM | EC50 (Ba/F3 stable cells [4]): ≤ 200 nM | EC50 (Ba/F3 stable cells [5]): 200 to 1000 nM | EC50 (Ba/F3 stable cells [6]): > 1000 nM

C=CC(=O)N1CCC(Oc2cc3c(NCc4cccc(I)c4)ncnc3cc2OC)CC1 [Compound 125, 1-(4-((4-((3-iodobenzyl)amino)-7-methoxyquinazolin-6-yl)oxy)piperidin-1-yl)prop-2-en-1-one]
EC50 (Ba/F3 stable cells [1]): 200 to 1000 nM | EC50 (Ba/F3 stable cells [2]): 200 to 1000 nM | EC50 (Ba/F3 stable cells [3]): 200 to 1000 nM | EC50 (Ba/F3 stable cells [4]): ≤ 200 nM | EC50 (Ba/F3 stable cells [5]): 200 to 1000 nM | EC50 (Ba/F3 stable cells [6]): 200 to 1000 nM

COc1cc2ncnc(Nc3ccc(Cl)c(Cl)c3F)c2cc1OC1CCN(C#N)CC1 [Compound 194, 4-((4-((3,4-dichloro-2-fluorophenyl)amino)-7-methoxyquinazolin-6-yl)oxy)piperidine-1-carbonitrile]
EC50 (Ba/F3 stable cells [1]): ≤ 200 nM | EC50 (Ba/F3 stable cells [2]): > 1000 nM | EC50 (Ba/F3 stable cells [3]): 200 to 1000 nM | EC50 (Ba/F3 stable cells [4]): ≤ 200 nM | EC50 (Ba/F3 stable cells [5]): > 1000 nM | EC50 (Ba/F3 stable cells [6]): > 1000 nM

C=CC(=O)N[C@H]1C[C@@H](Oc2cc3c(Nc4ccc(Cl)c(Cl)c4F)ncnc3cc2OC2COC2)C1 [Compound 104, N-((1s,3s)-3-((4-((3,4-dichloro-2-fluorophenyl)amino)-7-(oxetan-3-yloxy)quinazolin-6-yl)oxy)cyclobutyl)acrylamide]
EC50 (Ba/F3 stable cells [1]): ≤ 200 nM | EC50 (Ba/F3 stable cells [2]): 200 to 1000 nM | EC50 (Ba/F3 stable cells [3]): ≤ 200 nM | EC50 (Ba/F3 stable cells [4]): ≤ 200 nM | EC50 (Ba/F3 stable cells [5]): 200 to 1000 nM | EC50 (Ba/F3 stable cells [6]): 200 to 1000 nM

C=CC(=O)N[C@H]1CC[C@@H](Oc2cc3c(Nc4ccc(Cl)c(Cl)c4F)ncnc3cc2OC)CC1 [Compound 90, N-((1s,4s)-4-((4-((3,4-dichloro-2-fluorophenyl)amino)-7-methoxyquinazolin-6-yl)oxy)cyclohexyl)acrylamide]
EC50 (Ba/F3 stable cells [1]): ≤ 200 nM | EC50 (Ba/F3 stable cells [2]): > 1000 nM | EC50 (Ba/F3 stable cells [3]): 200 to 1000 nM | EC50 (Ba/F3 stable cells [4]): ≤ 200 nM | EC50 (Ba/F3 stable cells [5]): > 1000 nM | EC50 (Ba/F3 stable cells [6]): > 1000 nM

C=CC(=O)N[C@H]1C[C@@H](Oc2cc3c(Nc4ccc(Cl)c(Cl)c4F)ncnc3cc2O[C@H]2CCOC2)C1 [Compound 99, N-((1R,3s)-3-((4-((3,4-dichloro-2-fluorophenyl)amino)-7-(((S)-tetrahydrofuran-3-yl)oxy)quinazolin-6-yl)oxy)cyclobutyl)acrylamide]
EC50 (Ba/F3 stable cells [1]): ≤ 200 nM | EC50 (Ba/F3 stable cells [2]): 200 to 1000 nM | EC50 (Ba/F3 stable cells [3]): ≤ 200 nM | EC50 (Ba/F3 stable cells [4]): ≤ 200 nM | EC50 (Ba/F3 stable cells [5]): ≤ 200 nM | EC50 (Ba/F3 stable cells [6]): ≤ 200 nM

C=CC(=O)NC1CC(Oc2cc3c(Nc4ccc5ccccc5c4)ncnc3cc2OC)C1 (stereo not drawn) [Compound 80, N-(3-((7-methoxy-4-(naphthalen-2-ylamino)quinazolin-6-yl)oxy)cyclobutyl)acrylamide]
EC50 (Ba/F3 stable cells [1]): > 1000 nM | EC50 (Ba/F3 stable cells [2]): > 1000 nM | EC50 (Ba/F3 stable cells [3]): > 1000 nM | EC50 (Ba/F3 stable cells [4]): ≤ 200 nM | EC50 (Ba/F3 stable cells [5]): > 1000 nM | EC50 (Ba/F3 stable cells [6]): > 1000 nM

C=CC(=O)NC1CC(Nc2cc3c(Nc4ccc(Cl)c(Cl)c4F)ncnc3cc2OC)C1 (stereo not drawn) [Compound 92, N-(3-((4-((3,4-dichloro-2-fluorophenyl)amino)-7-methoxyquinazolin-6-yl)amino)cyclobutyl)acrylamide]
EC50 (Ba/F3 stable cells [1]): ≤ 200 nM | EC50 (Ba/F3 stable cells [2]): 200 to 1000 nM | EC50 (Ba/F3 stable cells [3]): ≤ 200 nM | EC50 (Ba/F3 stable cells [4]): ≤ 200 nM | EC50 (Ba/F3 stable cells [5]): 200 to 1000 nM | EC50 (Ba/F3 stable cells [6]): ≤ 200 nM

C=CC(=O)N1CCC(Oc2cc3c(Nc4ccc5cnn(C)c5c4)ncnc3cc2OC)CC1 [Compound 138, 1-(4-((7-methoxy-4-((1-methyl-1H-indazol-6-yl)amino)quinazolin-6-yl)oxy)piperidin-1-yl)prop-2-en-1-one]
EC50 (Ba/F3 stable cells [1]): ≤ 200 nM | EC50 (Ba/F3 stable cells [2]): 200 to 1000 nM | EC50 (Ba/F3 stable cells [3]): 200 to 1000 nM | EC50 (Ba/F3 stable cells [4]): ≤ 200 nM | EC50 (Ba/F3 stable cells [5]): 200 to 1000 nM | EC50 (Ba/F3 stable cells [6]): ≤ 200 nM

C=CC(=O)N1CC(c2cc3c(Nc4ccc(F)c5ccccc45)ncnc3cc2OC)C1 [Compound 14, 1-(3-(4-((4-fluoronaphthalen-1-yl)amino)-7-methoxyquinazolin-6-yl)azetidin-1-yl)prop-2-en-1-one]
EC50 (Ba/F3 stable cells [1]): ≤ 200 nM | EC50 (Ba/F3 stable cells [2]): > 1000 nM | EC50 (Ba/F3 stable cells [3]): ≤ 200 nM | EC50 (Ba/F3 stable cells [4]): ≤ 200 nM | EC50 (Ba/F3 stable cells [5]): ≤ 200 nM | EC50 (Ba/F3 stable cells [6]): > 1000 nM

C=CS(=O)(=O)N1CCC(Oc2c(OC)cc3ncnc4c3c2NC(=O)N4c2ccc(Cl)c(Cl)c2F)CC1 [Compound 225, 3-(3,4-dichloro-2-fluorophenyl)-8-methoxy-9-((1-(vinylsulfonyl)piperidin-4-yl)oxy)-1H-pyrimido[4,5,6-de]quinazolin-2(3H)-one]
EC50 (Ba/F3 stable cells [1]): ≤ 200 nM | EC50 (Ba/F3 stable cells [2]): ≤ 200 nM | EC50 (Ba/F3 stable cells [3]): ≤ 200 nM | EC50 (Ba/F3 stable cells [4]): ≤ 200 nM | EC50 (Ba/F3 stable cells [5]): ≤ 200 nM | EC50 (Ba/F3 stable cells [6]): > 1000 nM

C=CC(=O)N1CCC(Oc2cc3c(NC(CC(=O)O)c4cccc(Cl)c4)ncnc3cc2OC)CC1 (stereo not drawn) [Compound 129, 3-((6-((1-acryloylpiperidin-4-yl)oxy)-7-methoxyquinazolin-4-yl)amino)-3-(3-chlorophenyl)propanoic acid]
EC50 (Ba/F3 stable cells [1]): > 1000 nM | EC50 (Ba/F3 stable cells [2]): > 1000 nM | EC50 (Ba/F3 stable cells [3]): > 1000 nM | EC50 (Ba/F3 stable cells [4]): > 1000 nM | EC50 (Ba/F3 stable cells [5]): > 1000 nM | EC50 (Ba/F3 stable cells [6]): > 1000 nM

C=CC(=O)N[C@H]1C[C@@H](Oc2cc3c(C(=O)N[C@H](C)c4ccc(F)cc4)ncnc3cc2OC)C1 [Compound 97, 6-((1s,3S)-3-acrylamidocyclobutoxy)-N-((R)-1-(4-fluorophenyl)ethyl)-7-methoxyquinazoline-4-carboxamide]
EC50 (Ba/F3 stable cells [1]): > 1000 nM | EC50 (Ba/F3 stable cells [2]): > 1000 nM | EC50 (Ba/F3 stable cells [3]): > 1000 nM | EC50 (Ba/F3 stable cells [4]): > 1000 nM | EC50 (Ba/F3 stable cells [5]): > 1000 nM | EC50 (Ba/F3 stable cells [6]): > 1000 nM

C=CC(=O)N[C@H]1C[C@H](Oc2cc3c(Nc4ccc(Cl)c(Cl)c4F)ncnc3cc2OC)C1 [Compound 79, N-((1r,3r)-3-((4-((3,4-dichloro-2-fluorophenyl)amino)-7-methoxyquinazolin-6-yl)oxy)cyclobutyl)acrylamide]
EC50 (Ba/F3 stable cells [1]): ≤ 200 nM | EC50 (Ba/F3 stable cells [2]): > 1000 nM | EC50 (Ba/F3 stable cells [3]): 200 to 1000 nM | EC50 (Ba/F3 stable cells [4]): ≤ 200 nM | EC50 (Ba/F3 stable cells [5]): > 1000 nM | EC50 (Ba/F3 stable cells [6]): 200 to 1000 nM
